Measured values as given in article PMC5103216, “Novel Agonist Bioisosteres and Common Structure-Activity Relationships for The Orphan G Protein-Coupled Receptor GPR139” (Scientific Reports, 2016).

biological target: T1, GPR139 (Homo sapiens, UniProt Q6DWJ6); test: cAMP dynamic 2 assay measuring Gi activation (forskolin) in CHO-139; type: cell-based; conditions: CHO-139
T1 sequence (Q6DWJ6 1-353): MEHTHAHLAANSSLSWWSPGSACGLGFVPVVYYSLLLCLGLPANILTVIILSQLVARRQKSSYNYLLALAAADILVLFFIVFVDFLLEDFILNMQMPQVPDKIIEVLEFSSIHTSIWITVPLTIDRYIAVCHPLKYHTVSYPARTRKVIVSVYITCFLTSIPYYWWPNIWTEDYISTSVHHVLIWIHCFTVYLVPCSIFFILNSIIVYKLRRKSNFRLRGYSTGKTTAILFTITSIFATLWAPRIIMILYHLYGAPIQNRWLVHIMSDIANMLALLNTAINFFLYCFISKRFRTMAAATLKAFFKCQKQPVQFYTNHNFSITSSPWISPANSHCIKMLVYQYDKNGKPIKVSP
Description: The cAMP assay was performed as described in the work by Thomsen et al.[28] with few modifications. Breifly, CHO-139 and CHO-M1 was detached and resuspended to a concentration of 1 million cells/mL. 5 μL 2x concentrated compound (for Gs: +100 μM IBMX and for Gi: +100 μM IBMX +10 μM forskolin (Fsk)) and 5 μL cell suspension (5,000 cells/well) was mixed. The plate was sealed and incubated at room temperature for 30 min. Next, 10 μL detection reagents (lysis buffer containing 2.5% Eu^3+-anti-cAMP antibody and 2.5% cAMP-d2) was added and the plate was incubated for 1 hour at room temperature. The plate was read on an Envision (PerkinElmer, Waltham, MA, USA). The TR-FRET 665 nm/615 nm ratio, which is inversely proportional with the cAMP production, was used to determination the concentration of the cAMP response. […]
Supplementary Figure 2. cAMP dynamic 2 assay measuring Gi activation. 5,000 cells/well of CHO-139 (pink bars) or CHO-M1 (blue bars) cells are
incubated with the indicated compounds for 30 min at room temperature in the presence of 50 µM IBMX and 5 uM Fsk (expect “buffer (-Fsk) where only 50
µM IBMX is present). The straight line indicate the level of cAMP upon activation with 5 uM Fsk, and the grey area ±10% of the response. The responses are
one representative out of at two independent experiments performed in triplicates. Data points are means ± SD.

Compound	Inhibition of the cAMP response induced by 5 μM forskolin (Gi), in words
O=C(CN1CCCc2ccccc21)NNC(=O)c1ccc2c(c1)OCO2 [DL22]	none of the tested compounds were able to inhibit the cAMP response
O=C(CNC(=O)c1ccc2c(c1)OCO2)NC1CCSc2ccc(F)cc21 (stereo not drawn) [DL130]	none of the tested compounds were able to inhibit the cAMP response
O=C(NCC(=O)N1CCCC1c1ccccc1)c1ccc2c(c1)OCO2 (stereo not drawn) [DL132]	none of the tested compounds were able to inhibit the cAMP response
COc1cc(OC)cc(C(=O)NNC(=O)C2CCCc3ccccc32)c1 (stereo not drawn) [DL24]	none of the tested compounds were able to inhibit the cAMP response
O=C(Cc1cccc2ccccc12)NNC(=O)c1ccc2c(c1)OCO2 [DL126]	none of the tested compounds were able to inhibit the cAMP response
CCn1c(C)nc2cc(C(=O)NNC(=O)Cc3cccc4ccccc34)ccc21 [DL43]	none of the tested compounds were able to inhibit the cAMP response
